Legend:
[1] = tested on: Walker 256 carcinoma Sarcoma; experiment: Survival of rats with Walker 256 ascites tumour, amide with or without amplifier; format: in vivo, Sprague Dawley rats; conditions: for T/C (1): control saline vehicle only
Protocol: This was given two 2-minute treatments with Boyle's fluid (9 vols. 0.83% NH4CI, 1 vol. Tris buffer, pH7.2). The cell suspension was counted on a haemocytometer using Turk's fluid and then diluted with Eagle's medium to 10^7 live cells per ml, and then 0.1 ml was injected intraperitoneally. Bacto-fluid Thiolglycollate Medium was used to test for contamination. Solutions of the phleomycins, bleomycins or tallysomycins were made up in phosphate-buffered saline at pH7.2 in daily doses at the commencement of each 5 day injection period and were kept frozen until the commencement of each day's injections. The injections were given at 9 a.m. and 4 p.m. […] Test groups usually comprised 7 or 8 animals.

[2] = tested on: Ehrlich's Ascites Tumor; experiment: Survival of mice with Ehrlich's ascites tumor, amide with or without amplifier; format: in vivo; conditions: for T/C (1): control saline vehicle only
[3] = tested on: Mouse Sarcoma 180; experiment: Survival of mice with Sarcoma 180, amide with or without amplifier; format: in vivo; conditions: i.p.; for T/C (1): control saline vehicle only
[4] = Exp 1A, amplifier alone 10.61 uKD
[5] = Exp 1A, amplifier alone 106.1 uKD
[6] = Exp 1B, amplifier alone 10.61 uKD
[7] = Exp 1B, amplifier alone 1061 uKD
[8] = Exp 1D, amplifier alone 10.61 uKD in minipumps
[9] = Exp 1D, amplifier alone 106.1 uKD in minipumps
[10] = Exp 2A, i.p., amplifier alone 10.61 uKD
[11] = Exp 2A, i.p., amplifier alone 106.1 uKD
[12] = Exp 2B, amplifier alone 10.61 uKD in drinking water
[13] = Exp 2B, amplifier alone 106.1 uKD in drinking water
[14] = Exp 2B, amplifier alone 1061 uKD in drinking water
[15] = Exp 3A, amplifier alone 1942 uKD
[16] = Exp 1C, amplifier alone 675 uKD
[17] = Exp 1E, amplifier alone 675 uKD
[18] = Exp 2C, i.p., amplifier alone 675 uKD
[19] = Exp 2C, i.p., amplifier alone 2025 uKD
[20] = Exp 3B, amplifier alone 675 uKD
[21] = Exp 3C, amplifier alone 675 uKD

Compound: Cn1c(=O)c2c(ncn2C)n(C)c1=O [Caffeine, 1, 3, 7 trimethyl xanthene]
- M.S.T. [1, 4]: 8.0 days
- T/C (1) [1, 4]: 89
- M.S.T. [1, 5]: 8.0 days
- T/C (1) [1, 5]: 89
- M.S.T. [1, 6]: 7.0 days
- T/C (1) [1, 6]: 93
- M.S.T. [1, 7]: 8.0 days
- T/C (1) [1, 7]: 107
- M.S.T. [1, 8]: 10.0 days
- T/C (1) [1, 8]: 95
- M.S.T. [1, 9]: 10.0 days
- T/C (1) [1, 9]: 95
- M.S.T. [2, 10]: 21.0 days
- T/C (1) [2, 10]: 93
- M.S.T. [2, 11]: 21.0 days
- T/C (1) [2, 11]: 93
- M.S.T. [2, 12]: 22.0 days
- T/C (1) [2, 12]: 119
- M.S.T. [2, 13]: 21.0 days
- T/C (1) [2, 13]: 113
- M.S.T. [2, 14]: 20.0 days
- T/C (1) [2, 14]: 108
- M.S.T. [3, 15]: 17.0 days
- T/C (1) [3, 15]: 106

Compound: Dimethylthiocyanine
- M.S.T. [1, 16]: 9.0 days
- T/C (1) [1, 16]: 112
- M.S.T. [1, 17]: 6.0 days
- T/C (1) [1, 17]: 100
- M.S.T. [2, 18]: 20.0 days
- T/C (1) [2, 18]: 111
- M.S.T. [2, 19]: 20.0 days
- T/C (1) [2, 19]: 111
- M.S.T. [3, 20]: 17.0 days
- T/C (1) [3, 20]: 100
- M.S.T. [3, 21]: 17.0 days
- T/C (1) [3, 21]: 100
